Assay results: ChEMBL document CHEMBL1126002, “Interphenylene 7-oxabicyclo[2.2.1]heptanes. SQ33,961: a new potent, long-acting thromboxane antagonist” (Bioorg Med Chem Lett, 1991)

Key:
Homo sapiens [1] = organism: Homo sapiens; assay: Compound was evaluated for the ability to inhibit arachidonic acid induced platelet aggregation (AAIPA) in human platelet rich plasma; assay type: functional; conditions: read-out: I50
Homo sapiens [2] = organism: Homo sapiens; assay: Compound was evaluated for the ability to inhibit […] induced platelet aggregation (U-IPA) in human platelet rich plasma.; assay type: functional; conditions: read-out: I50
Mus musculus = assay: Compound (0.2 mpk/po) was evaluated for the ability to protect from U-46,619 induced lethality in mice as a function of time one half of the population survives from time of dosage; assay type: functional
Thromboxane A2 receptor = target: T1, Thromboxane A2 receptor (Homo sapiens, UniProt P21731); assay: Compound was evaluated for the receptor binding studies with Thromboxane A2 receptor using [3H]-SQ 29548 as radioligand in human platelet membranes.; assay type: cell membranes
T1 sequence (P21731 whole entry): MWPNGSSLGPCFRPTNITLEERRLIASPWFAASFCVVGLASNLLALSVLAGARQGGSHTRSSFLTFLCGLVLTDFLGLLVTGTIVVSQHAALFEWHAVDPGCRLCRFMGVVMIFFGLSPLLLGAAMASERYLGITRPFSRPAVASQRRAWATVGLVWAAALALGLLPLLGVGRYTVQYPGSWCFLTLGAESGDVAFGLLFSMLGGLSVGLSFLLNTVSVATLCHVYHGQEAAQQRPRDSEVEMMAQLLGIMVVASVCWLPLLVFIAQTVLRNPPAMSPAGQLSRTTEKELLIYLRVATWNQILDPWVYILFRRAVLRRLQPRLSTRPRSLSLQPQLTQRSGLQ

| IC50 (Homo sapiens [1]) | IC50 (Homo sapiens [2]) | Structure (SMILES) | T50 (Mus musculus) | Kd (Thromboxane A2 receptor) |
| --- | --- | --- | --- | --- |
| 1 nM | 6 nM | CCCCCCCCCCNC(=O)c1coc(C2C3CCC(O3)C2Cc2ccccc2CCC(=O)O)n1 (stereo unspecified) | – | – |
| 4 nM | 13 nM | O=C(O)CCc1ccccc1CC1C2CCC(O2)C1c1nc(C(=O)NCCCCc2ccc(Cl)cc2)co1 (stereo unspecified) | – | – |
| 2 nM | 13 nM | CCCCCCCNC(=O)c1coc(C2C3CCC(O3)C2Cc2ccccc2CCC(=O)O)n1 (stereo unspecified) | – | – |
| 3 nM | 25 nM | O=C(O)CCc1ccccc1CC1C2CCC(O2)C1c1nc(C(=O)NC2CCCCC2)co1 (stereo unspecified) | – | – |
| 3 nM | 5 nM | CC(C)(C)CCCCCCNC(=O)c1coc(C2C3CCC(O3)C2Cc2ccccc2CCC(=O)O)n1 (stereo unspecified) | – | – |
| 20 nM | 81 nM | CNC(=O)c1coc(C2C3CCC(O3)C2Cc2ccccc2CCC(=O)O)n1 (stereo unspecified) | – | – |

| Structure (SMILES) | IC50 (Homo sapiens [1]) | IC50 (Homo sapiens [2]) | T50 (Mus musculus) | Kd (Thromboxane A2 receptor) |
| --- | --- | --- | --- | --- |
| O=C(O)CCc1ccccc1CC1C2CCC(O2)C1c1nc(C(=O)NCCCCC2CCCCC2)co1 (stereo unspecified) | 2 nM | 6 nM | 23 h | 0.1 nM |
